± gives the standard deviation of the averaged measurements.
Assay: TIMS collisional cross section (CCS, N2) of the lipid ion; higher = larger ion cross section
Details: ionization mode: positive, one isomer drawn

TIMS collisional cross section (sample type: Liver) [Å²] | TIMS collisional cross section (sample type: HeLa) [Å²] | TIMS collisional cross section (sample type: plasma) [Å²] | Structure (SMILES)
288 | – | – | CC/C=C\C/C=C\C/C=C\C/C=C\C/C=C\C/C=C\CCC(=O)O[C@H](COC(=O)CCCCCCCCCCCCCC)COP(=O)([O-])OCC[N+](C)(C)C [PC 15:0_22:6] (ion (formula + adduct): [C45H78NO8P+H] 1+)
– | 272.8 | – | CCCCC/C=C\CCCCCCCC(=O)OC[C@H](COP(=O)([O-])OCC[N+](C)(C)C)OC(=O)CCCCCCC/C=C\CCCCCC [PC 15:1_16:1@] (ion (formula + adduct): [C39H74NO8P+H] 1+)
– | 290.2 | – | CCCCC/C=C\C/C=C\C/C=C\C/C=C\CCCCCC(=O)O[C@H](COC(=O)CCCCCCC/C=C\CCCCC)COP(=O)([O-])OCC[N+](C)(C)C [PC 15:1_22:4] (ion (formula + adduct): [C45H80NO8P+H] 1+)
– | – | 289.8 | CC/C=C\C/C=C\C/C=C\C/C=C\C/C=C\C/C=C\CCC(=O)O[C@H](COC(=O)CCCCCCC/C=C\CCCCC)COP(=O)([O-])OCC[N+](C)(C)C [PC 15:1_22:6] (ion (formula + adduct): [C45H76NO8P+H] 1+)
– | 281.7 | 282.2 | CCCCCC/C=C\CCCCCCCC(=O)O[C@H](COC(=O)CCCCCCCCCCCCCCC)COP(=O)([O-])OCC[N+](C)(C)C [PC 16:0@_16:1] (ion (formula + adduct): [C40H78NO8P+H] 1+)
287.6 | 289.15 ± 0.49 | 288.2 | CCCCCCCC/C=C\CCCCCCCC(=O)O[C@H](COC(=O)CCCCCCCCCCCCCCC)COP(=O)([O-])OCC[N+](C)(C)C [PC 16:0@_18:1] (ion (formula + adduct): [C42H82NO8P+H] 1+)
283.5 | – | 284.9 | CCCCC/C=C\C=C\CCCCCCCCC(=O)O[C@H](COC(=O)CCCCCCCCCCCCCCC)COP(=O)([O-])OCC[N+](C)(C)C [PC 16:0@_18:2] (ion (formula + adduct): [C42H80NO8P+H] 1+)
289.8 | – | – | CCCCCCCC/C=C\C/C=C\C/C=C\CCCC(=O)O[C@H](COC(=O)CCCCCCCCCCCCCCC)COP(=O)([O-])OCC[N+](C)(C)C [PC 16:0@_20:3] (ion (formula + adduct): [C44H82NO8P+H] 1+)
– | – | 290.6 | CC/C=C\C/C=C\C/C=C\C/C=C\C/C=C\CCCC(=O)O[C@H](COC(=O)CCCCCCCCCCCCCCC)COP(=O)([O-])OCC[N+](C)(C)C [PC 16:0@_20:5] (ion (formula + adduct): [C44H78NO8P+H] 1+)
– | 294.9 | – | CCCCC/C=C\C/C=C\C/C=C\C/C=C\CCCCCC(=O)O[C@H](COC(=O)CCCCCCCCCCCCCCC)COP(=O)([O-])OCC[N+](C)(C)C [PC 16:0@_22:4] (ion (formula + adduct): [C46H84NO8P+H] 1+)
293.8 | – | – | CCCCC/C=C\C/C=C\C/C=C\C/C=C\C/C=C\CCC(=O)O[C@H](COC(=O)CCCCCCCCCCCCCCC)COP(=O)([O-])OCC[N+](C)(C)C [PC 16:0@_22:5] (ion (formula + adduct): [C46H82NO8P+H] 1+)
285.5 | 286.1 | 285.7 ± 0.42 | CCCCCCCCCCCCCCCC(=O)OC[C@H](COP(=O)([O-])OCC[N+](C)(C)C)OC(=O)CCCCCCCCCCCCCCC [PC 16:0_16:0] (ion (formula + adduct): [C40H80NO8P+H] 1+)
– | 282 | – | CCCCCC/C=C\CCCCCCCC(=O)O[C@H](COC(=O)CCCCCCCCCCCCCCC)COP(=O)([O-])OCC[N+](C)(C)C [PC 16:0_16:1@] (ion (formula + adduct): [C40H78NO8P+H] 1+)
